pIC50: −log10 of the molar value.
Target: T1, human C1 r (Homo sapiens, UniProt P00736)
T1 construct: purchased Enzyme Research Labs (South Bend, Ind.)
T1 sequence (P00736 464-705 limits assumed): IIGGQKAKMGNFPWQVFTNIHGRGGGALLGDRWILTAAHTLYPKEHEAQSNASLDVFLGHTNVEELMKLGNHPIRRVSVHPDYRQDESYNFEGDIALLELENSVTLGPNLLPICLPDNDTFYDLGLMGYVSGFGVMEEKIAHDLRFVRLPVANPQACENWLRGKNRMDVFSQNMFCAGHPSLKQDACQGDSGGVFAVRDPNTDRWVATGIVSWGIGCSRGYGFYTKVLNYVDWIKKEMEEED
T1 sequence (P00736 18-463 partner limits assumed): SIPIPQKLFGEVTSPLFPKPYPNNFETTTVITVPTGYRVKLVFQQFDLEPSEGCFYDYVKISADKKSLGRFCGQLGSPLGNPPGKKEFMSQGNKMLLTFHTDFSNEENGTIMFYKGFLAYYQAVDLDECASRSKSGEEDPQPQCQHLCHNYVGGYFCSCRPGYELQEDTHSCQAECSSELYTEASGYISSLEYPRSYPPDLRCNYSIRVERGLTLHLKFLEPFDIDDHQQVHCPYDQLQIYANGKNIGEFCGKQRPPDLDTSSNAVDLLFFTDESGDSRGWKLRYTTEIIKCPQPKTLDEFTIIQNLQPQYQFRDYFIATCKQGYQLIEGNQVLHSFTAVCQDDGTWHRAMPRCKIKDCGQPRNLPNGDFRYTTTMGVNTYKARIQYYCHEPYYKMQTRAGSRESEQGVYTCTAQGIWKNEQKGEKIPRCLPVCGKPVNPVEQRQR
Test: Assay of C1r Enzyme Activity (Assay 1), thioester substrate z-Gly-Arg-S-Bzl with DTNB
Type: biochemical
Conditions: Table 1 and text, pH 7.4-7.5, read-out: Inhibition of Clr Assay 1 (IC50)
Protocol: Assay of C1 r Enzyme Activity Purified human C1 r was obtained commercially from Enzyme Research Labs (South Bend, Ind.). The enzyme is stored frozen at -70° C. at a stock concentration of about 1 mg/mL of protein until the enzyme is needed. […] The thioester substrate, z-Gly-Arg-S-Bzl, for C1 r assays (McRae, et al., 1981) is obtained commercially from Enzyme System Products (Livermore, Calif.). All other reagents were obtained from Sigma Chemical Co. (St. Louis, Mo.). The procedure for assaying the inhibition of C1 r enzyme activity is as follows. A 5 mM stock solution of z-Gly-Arg-S-Bzl is made in dimethylsulfoxide (DMSO) and stored at room temperature until needed. The stock substrate solution is diluted 3 parts stock substrate solution to 7 parts distilled water to make a 1.5 mM working substrate solution. The working substrate solution is made just before it is needed. A fresh solution of 20 μg/mL of C1 r enzyme is made in 10 mM Tris buffer, pH 7.4. The enzyme solution can be stored on ice for up to an hour. […] Compounds at concentrations ranging from 1 mM to 0.010 mM are dissolved in DMSO and a 10 μL aliquot of each concentration is deposited in a well of a 96-well microtiter plate. Fifty microliters of the working substrate solution and 50 μL of DTNB solution are then dispensed in the wells of the microtiter plate, followed by the immediate addition of 50 μL of the C1 r enzyme solution to start the assay. The assay produces a yellow color that is read in the kinetic mode using a Molecular Devices Thermomax microplate reader set to a wavelength of 405 nm. The assay background is followed by monitoring wells that contain substrate, buffer, and DTNB solutions but no enzyme. All assays are performed in triplicate at each inhibitor concentration tested. Values for each inhibitor concentration are reported as optical density (OD)/minute.

SMILES	pIC50
Cc1ccccc1C(=O)N(C)c1nc2ccccc2c(=O)o1 [Example 36, 2,N-Dimethyl-N-(4-oxo-4H-benzo[d][1,3]oxazin-2-yl)-benzamide]	< 4.17
CN(C(=O)c1ccccc1F)c1nc2ccccc2c(=O)o1 [Example 33, 2-Fluoro-N-methyl-N-(4-oxo-4H-benzo[d][1,3]oxazin-2-yl)-benzamide]	4.22
Cc1cccc2nc(Nc3ccccc3I)oc(=O)c12 [Example 26, 2-(2-Iodo-phenylamino)-5-methyl-benzo[d][1,3]oxazin-4-one]	< 4.18
CN(C(=O)c1ccccc1I)c1nc2cccc(Cl)c2c(=O)o1 [Example 54, N-(5-Chloro-4-oxo-4H-benzo[d][1,3]oxazin-2-yl)-2-iodo-N-methyl-benzamide]	4.44
COc1ccc2nc(Nc3ccccc3I)oc(=O)c2c1 [Example 24, 2-(2-Iodo-phenylamino)-6-methoxy-benzo[d][1,3]oxazin-4-one]	4.26
Cc1ccccc1Nc1nc2ccccc2c(=O)o1 [Example 51, 2-o-Tolylamino-benzo[d][1,3]oxazin-4-one]	4.51
O=c1oc(Nc2ccc(I)cc2)nc2ccccc12 [Example 6, 2-(4-Iodo-phenylamino)-benzo[d][1,3]oxazin-4-one]	< 4.17
CN(C(=O)c1ccccc1I)c1nc2ccc(Cl)cc2c(=O)o1 [Example 41, N-(6-Chloro-4-oxo-4H-benzo[d][1,3]oxazin-2-yl)-2-iodo-N-methyl-benzamide]	< 4.18
CN(C(=O)c1ccc(I)cc1)c1nc2ccccc2c(=O)o1 [Example 38, 4-Iodo-N-methyl-N-(4-oxo-4H-benzo[d][1,3]oxazin-2-yl)-benzamide]	4.48
CN(C(=O)c1ccccc1I)c1nc2cc(Cl)ccc2c(=O)o1 [Example 42, N-(7-Chloro-4-oxo-4H-benzo[d][1,3]oxazin-2-yl)-2-iodo-N-methyl-benzamide]	4.74
COc1ccccc1C(=O)N(C)c1nc2ccccc2c(=O)o1 [Example 35, 2-Methoxy-N-methyl-N-(4-oxo-4H-benzo[d][1,3]oxazin-2-yl)-benzamide]	< 4.18
CN(C)c1ccc2c(=O)oc(Nc3ccccc3I)nc2c1 [Example 19, 7-Dimethylamino-2-(2-iodo-phenylamino)-benzo[d][1,3]oxazin-4-one]	< 4.18
O=c1oc(Nc2cccc(I)c2)nc2ccccc12 [Example 5, 2-(3-Iodo-phenylamino)-benzo[d][1,3]oxazin-4-one]	< 4.17
COc1ccc(C(=O)N(C)c2nc3ccccc3c(=O)o2)cc1 [Example 59, 4-Methoxy-N-methyl-N-(4-oxo-4H-benzo[d][1,3]oxazin-2-yl)-benzamide]	4.72
CCN(c1nc2ccccc2c(=O)o1)c1ccccc1I [Example 11, 2-[Ethyl-(2-iodo-phenyl)-amino]-benzo[d][1,3]oxazin-4-one]	< 4.18
COc1ccc2nc(N(C)C(=O)c3ccccc3I)oc(=O)c2c1 [Example 43, 2-Iodo-N-(6-methoxy-4-oxo-4H-benzo[d][1,3]oxazin-2-yl)-N-methyl-benzamide]	4.32

Stronger by pIC50, values ahead:

pIC50	SMILES
5.89	Cc1ccc2nc(N(C)C(=O)c3ccccc3I)oc(=O)c2c1 [Example 40, 2-Iodo-N-methyl-N-(6-methyl-4-oxo-4H-benzo[d][1,3]oxazin-2-yl)-benzamide]
5.15	O=c1oc(Nc2ccccc2I)nc2cc(F)c(F)cc12 [Example 46, 6,7-Difluoro-2-(2-iodo-phenylamino)-benzo[d][1,3]oxazin-4-one]
5.46	O=c1oc(Nc2ccccc2I)nc2ccccc12 [Example 4, 2-(2-Iodo-phenylamino)-benzo[d][1,3]oxazin-4-one]
5.19	O=c1oc(Nc2ccccc2Cl)nc2ccccc12 [Example 2, 2-(2-Chloro-phenylamino)-benzo[d][1,3]oxazin-4-one]
6.12	O=c1oc(Nc2ccccc2I)nc2cc([N+](=O)[O-])ccc12 [Example 30, 2-(2-Iodo-phenylamino)-7-nitro-benzo[d][1,3]oxazin-4-one]
5.85	O=c1oc(Nc2ccccc2I)nc2cc3ccccc3cc12 [Example 20, 2-(2-Iodo-phenylamino)-naphtho[2,3-d][1,3]oxazin-4-one]
6.10	Cc1ccc2c(=O)oc(Nc3ccccc3I)nc2c1 [Example 28, 2-(2-Iodo-phenylamino)-7-methyl-benzo[d][1,3]oxazin-4-one]
6.40	O=c1oc(Nc2c(Cl)cccc2Cl)nc2cc(Cl)ccc12 [Example 50, 7-Chloro-2-(2,6-dichloro-phenylamino)-benzo[d][1,3]oxazin-4-one]
5.55	Cc1ccc2c(=O)oc(N(C)C(=O)c3ccccc3I)nc2c1 [Example 55, 2-Iodo-N-methyl-N-(7-methyl-4-oxo-4H-benzo[d][1,3]oxazin-2-yl)-benzamide]
4.92	N=C(N)c1ccc2cc(OC(=O)c3ccc(N=C(N)N)cc3)ccc2c1 [FUT-175, reference compound]
5.85	O=c1oc(Nc2ccccc2Cl)nc2cc([N+](=O)[O-])ccc12 [Example 52, 2-(2-Chloro-phenylamino)-7-nitro-benzo[d][1,3]oxazin-4-one]
5.00	CN(C(=O)c1ccco1)c1nc2ccccc2c(=O)o1 [Example 61, Furan-2-carboxylic acid methyl-(4-oxo-4H-benzo[d][1,3]oxazin-2-yl)-amide]
5.82	CN(C(=O)c1ccccc1C(F)(F)F)c1nc2ccccc2c(=O)o1 [Example 16, N-Methyl-N-(4-oxo-4H-benzo[d][1,3]oxazin-2-yl)-2-trifluoromethyl-benzamide]
5.08	CCN(C(=O)c1ccccc1I)c1nc2ccccc2c(=O)o1 [Example 18, N-Ethyl-2-iodo-N-(4-oxo-4H-benzo[d][1,3]oxazin-2-yl)-benzamide]
5.82	O=c1oc(Nc2c(Cl)cccc2Cl)nc2ccccc12 [Example 53, 2-(2,6-Dichloro-phenylamino)-benzo[d][1,3]oxazin-4-one]
5.40	O=c1oc(Nc2ccccc2OC(F)(F)F)nc2ccccc12 [Example 9, 2-(2-Trifluoromethoxy-phenylamino)-benzo[d][1,3]oxazin-4-one]
6.15	O=c1oc(Nc2ccccc2I)nc2cc(Cl)ccc12 [Example 23, 7-Chloro-2-(2-iodo-phenylamino)-benzo[d][1,3]oxazin-4-one]
4.80	CCCCc1ccc(C(=O)N(C)c2nc3ccccc3c(=O)o2)cc1 [Example 58, 4-Butyl-N-methyl-N-(4-oxo-4H-benzo[d][1,3]oxazin-2-yl)-benzamide]
4.84	O=c1oc(Nc2ccccc2I)nc2cccc(Cl)c12 [Example 21, 5-Chloro-2-(2-iodo-phenylamino)-benzo[d][1,3]oxazin-4-one]
5.40	CN(C(=O)c1ccccc1Br)c1nc2ccccc2c(=O)o1 [Example 14, 2-Bromo-N-methyl-N-(4-oxo-4H-benzo[d][1,3]oxazin-2-yl)-benzamide]
4.80	CN(C(=O)c1ccccc1Cl)c1nc2ccccc2c(=O)o1 [Example 34, 2-Chloro-N-methyl-N-(4-oxo-4H-benzo[d][1,3]oxazin-2-yl)-benzamide]
5.40	O=c1oc(Nc2ccccc2I)nc2ccc(Cl)cc12 [Example 22, 6-Chloro-2-(2-iodo-phenylamino)-benzo[d][1,3]oxazin-4-one]

— patent US5652237A, “2-substituted-4H-3, 1-benzoxazin-4-ones and benzthiazin-4-ones as inhibitors of complement C1r protease for the treatment of inflammatory processes” (Warner-Lambert Company, priority 1995, dated 1997)
